This is an account of results in publication PMC3914206.

Holding throughout (assay type): binding
The target in assay [1] is T1, panel of 442 kinases (Homo sapiens, UniProt Q9UEW8).
T1 construct: purchased KINOMEscan
The note with it: kinase STK39; compound concentration 10 µM. The text has this: (§1) We assessed the selectivity of members of this scaffold using the KINOMEscan methodology across a near comprehensive panel of 442 kinases [[18,27]].

Assay [2] addresses T2, panel of 442 kinases (Homo sapiens, UniProt P08069).
T2 construct: purchased KINOMEscan
The note with it: Compound Concentration 10 µM.
From the text: as §1

Assay [3] deals with T3, panel of 442 kinases (Homo sapiens, UniProt P27448).
T3 construct: purchased KINOMEscan
T3 sequence (P27448 whole entry): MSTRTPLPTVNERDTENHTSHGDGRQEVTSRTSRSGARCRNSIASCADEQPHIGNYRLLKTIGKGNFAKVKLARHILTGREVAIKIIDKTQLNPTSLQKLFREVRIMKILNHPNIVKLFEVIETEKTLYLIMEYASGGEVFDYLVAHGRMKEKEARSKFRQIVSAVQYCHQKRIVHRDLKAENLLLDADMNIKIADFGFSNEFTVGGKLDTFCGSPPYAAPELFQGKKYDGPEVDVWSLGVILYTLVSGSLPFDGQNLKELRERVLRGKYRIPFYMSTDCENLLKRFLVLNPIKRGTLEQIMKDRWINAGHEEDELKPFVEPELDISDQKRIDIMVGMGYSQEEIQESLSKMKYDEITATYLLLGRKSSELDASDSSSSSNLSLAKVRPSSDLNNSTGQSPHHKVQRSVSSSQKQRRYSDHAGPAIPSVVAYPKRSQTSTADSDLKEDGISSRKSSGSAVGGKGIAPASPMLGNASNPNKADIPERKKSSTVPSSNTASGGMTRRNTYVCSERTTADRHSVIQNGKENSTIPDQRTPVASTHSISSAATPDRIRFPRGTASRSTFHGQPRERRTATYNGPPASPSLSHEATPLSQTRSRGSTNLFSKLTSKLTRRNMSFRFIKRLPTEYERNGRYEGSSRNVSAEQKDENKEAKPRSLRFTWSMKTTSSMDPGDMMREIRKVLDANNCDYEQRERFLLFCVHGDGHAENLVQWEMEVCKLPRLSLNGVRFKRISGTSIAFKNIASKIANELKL
The note with it: Compound Concentration 10 µM.
From the text: as §1

T2 sequence (P08069 31-1367): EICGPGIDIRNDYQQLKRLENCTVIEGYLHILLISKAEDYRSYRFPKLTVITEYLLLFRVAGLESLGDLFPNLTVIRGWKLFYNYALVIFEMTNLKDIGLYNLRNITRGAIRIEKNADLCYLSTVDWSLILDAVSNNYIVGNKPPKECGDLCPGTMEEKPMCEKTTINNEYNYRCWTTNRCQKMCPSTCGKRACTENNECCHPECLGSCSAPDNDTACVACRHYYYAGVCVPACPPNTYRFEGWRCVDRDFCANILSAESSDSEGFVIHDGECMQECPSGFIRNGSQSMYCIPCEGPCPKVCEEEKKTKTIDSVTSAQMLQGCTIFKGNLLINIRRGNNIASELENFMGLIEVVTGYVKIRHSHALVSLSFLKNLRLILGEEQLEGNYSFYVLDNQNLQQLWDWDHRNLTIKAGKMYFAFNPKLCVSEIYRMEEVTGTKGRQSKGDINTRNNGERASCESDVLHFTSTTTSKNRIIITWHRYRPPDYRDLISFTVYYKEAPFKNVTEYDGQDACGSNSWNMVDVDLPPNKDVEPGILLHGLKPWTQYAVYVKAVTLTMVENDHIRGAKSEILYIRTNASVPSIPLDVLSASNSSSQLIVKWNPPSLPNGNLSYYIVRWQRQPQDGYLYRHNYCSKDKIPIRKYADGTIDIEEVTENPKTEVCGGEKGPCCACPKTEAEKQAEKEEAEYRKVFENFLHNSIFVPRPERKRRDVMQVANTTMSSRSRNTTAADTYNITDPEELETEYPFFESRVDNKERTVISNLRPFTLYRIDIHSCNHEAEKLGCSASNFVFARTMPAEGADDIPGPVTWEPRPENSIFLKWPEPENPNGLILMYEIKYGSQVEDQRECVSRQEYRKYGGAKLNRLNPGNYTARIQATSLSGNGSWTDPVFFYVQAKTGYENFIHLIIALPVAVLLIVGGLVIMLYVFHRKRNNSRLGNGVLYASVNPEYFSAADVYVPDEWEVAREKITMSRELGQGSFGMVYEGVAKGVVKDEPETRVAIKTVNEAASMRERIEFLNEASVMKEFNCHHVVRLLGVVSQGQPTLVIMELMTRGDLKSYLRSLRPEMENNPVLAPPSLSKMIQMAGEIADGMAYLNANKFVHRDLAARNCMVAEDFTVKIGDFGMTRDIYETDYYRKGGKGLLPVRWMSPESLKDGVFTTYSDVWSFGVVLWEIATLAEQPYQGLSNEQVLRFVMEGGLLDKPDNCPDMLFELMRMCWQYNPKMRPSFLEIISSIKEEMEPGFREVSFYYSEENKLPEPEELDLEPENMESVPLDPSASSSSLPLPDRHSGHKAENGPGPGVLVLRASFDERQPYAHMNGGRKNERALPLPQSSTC

On to `COc1cc(C(=O)N2CCC(N3CCN(C)CC3)CC2)ccc1Nc1ncc2c(n1)N(C1CCCC1)c1ccccc1C(=O)N2C` [Compound 25, 11-cyclopentyl-2-((2-methoxy-4-(4-(4-methylpiperazin-1-yl)piperidine-1-carbonyl)phenyl)amino)-5-methyl-5H-benzo[e]pyrimido[5,4-b][1,4]diazepin-6(11H)-one], for which, in assay [1], the “% Ctrl, STK39” value amounted to 100 % Ctrl. Further, in assay [2], the “KINOMEscan: IGF1R” value came to 89. Further, in assay [3], the “KINOMEscan: MARK3” value came to 100.
Turning to `COc1cc(C(=O)N2CCC(N3CCN(C)CC3)CC2)ccc1Nc1ncc2c(n1)N1CCc3cccc(c31)C(=O)N2C` [Compound 24], the “% Ctrl, STK39” value in assay [1] is on record as 100 % Ctrl.
In the case of `COc1cc(C(=O)N2CCC(N3CCN(C)CC3)CC2)ccc1Nc1ncc2c(n1)N(C)c1ccccc1C(=O)N2C` [15 (LRRK2-IN-1)], the “% Ctrl, STK39” value in assay [1] was determined as 39 % Ctrl. Further, the “KINOMEscan: IGF1R” value in assay [2] is 96. Also, the “KINOMEscan: MARK3” value in assay [3] was 98.
Regarding `CCOc1cc(C(=O)N2CCC(N3CCN(C)CC3)CC2)ccc1Nc1ncc2c(n1)N(C1CCCC1)c1ccccc1C(=O)N2C` [Compound 26], the “% Ctrl, STK39” value in assay [1] is recorded as 100 % Ctrl. Also, the “KINOMEscan: IGF1R” value in assay [2] is given as 100. Besides, the “KINOMEscan: MARK3” value in assay [3] is given as 100.
